Data reported in patent US9453056B2, “Nucleic acid construct comprising nucleic acid derived from genome of hepatitis C virus of genotype 3a” (priority 2011, dated 2016).

Key:
[1] = system: S310A subgenomic replicon-replicating cells (clones); experiment: Effect of antiviral agents on replicon RNA replication in S310A subgenomic replicon-replicating cells (quantification of replicon RNA copy number); format: cell-based, hepatitis C virus of genotype 3a (S310A strain); conditions: S310A subgenomic replicon-replicating cell clones 6, 9 and 10; inhibitor for 3 days; relative to no inhibitor (100%)
Description: (§1) With the use of the S310A subgenomic replicon-replicating cells of the established 10 clones (Clone Nos. 1 to 10), the copy number of intracellular HCV subgenomic replicon RNA was quantified. The quantification of copy number of HCV subgenomic replicon RNA was carried out in accordance with the technique described in Takeuchi et al. (Gastroenterology, 1999, Vol. 116, pp. 636-642) and Kato et al. (Gastroenterology, 2003, Vol. 125, pp. 1808-1817).
(§2) This technique is a detection system using TaqMan probe method (PerkinElmer Inc., Applied Biosystems Inc.). Specifically, total RNA was first extracted from the S310A subgenomic replicon-replicating cells in accordance with a conventional technique. Subsequently, cDNA was synthesized from total RNA using rTth DNA polymerase, and the synthesized cDNA template was amplified via PCR using the primers: 5′-CGGGAGAGCCATAGTGG-3′ (SEQ ID NO: 24) and 5′-AGTACCACAAGGCCTTTCG-3′ (SEQ ID NO: 25). At this time, a probe having the nucleotide sequence 5′-[…]-3′ (SEQ ID NO: 26) to which a fluorescent dye, 6′-carboxy-fluorescein (FAM), had been bound at the 5′ terminus and a quencher, 6′-carboxytetramethyl-rhodamine (TAMRA), had been bound at the 3′ terminus was added. In the presence of such probe, the probe that had hybridized to the template cDNA is degraded because of 5′ exonuclease activity of the Taq polymerase during the process of amplification, the fluorescent dye is released from the probe, suppression by the quencher is released, thereby emitting fluorescence. Thus, such fluorescence was detected with ABI Prism 7700 (ParkinElmer Inc., Applied Biosystems Inc.) to quantify the copy number of HCV subgenomic replicon RNA.
The S310A subgenomic replicon-replicating cells (clones) and the JFH-1 subgenomic replicon-replicating cells were seeded on 24-well plates at a density of 5×10^4 cells/well, interferon-α (IFN-α), NS3 protease inhibitors (VX-950 (telaprevir) (Lin et al, Journal of Biological Chemistry, 2004, Vol. 279, pp. 17508-17514) and BILN-2061 (Daniel et al, Nature, 2003, Vol. 426, pp. 186-189)), and NS5B polymerase inhibitors JTK-109 (Hirashima et al, Journal of Medicinal Chemistry, 2006, Vol. 49, pp. 4721-4736) and PSI-6130 (Clark et al, Journal of Medicinal Chemistry, 2005, Vol. 48, pp. 5504-5508) were added to the wells on the following day, and the reaction was allowed to proceed for 3 days. Thereafter, the cells were recovered, total RNAs were extracted therefrom, and the copy number of HCV subgenomic replicon RNA in the cells was quantified in the same manner as in Example 4.
In each figure, the horizontal axis represents the concentration of an inhibitor added. The vertical axis represents change ratio of HCV RNA levels, which is the percentage (%) of the amount of subgenomic replicon RNA per μg of total RNA from cells when an inhibitor was added, relative to the amount of subgenomic replicon RNA per μg of total RNA from cells when no inhibitor was added (0 IU or 0 M) (defined as 100%). In the Figures, the leftmost bar (white) represents the results for the JFH-1 subgenomic replicon-replicating cells, the second bar from the left (light gray) represents the results for the S310A subgenomic replicon-replicating cell clone 6, the third bar from the left (black) represents the results for the S310A subgenomic replicon-replicating cell clone 9, and the rightmost bar (dark gray) represents the results for the S310A subgenomic replicon-replicating cell clone 10 at each inhibitor concentration.

[2] = system: JFH-1 subgenomic replicon-replicating cells; experiment: Effect of antiviral agents on replicon RNA replication in JFH-1 subgenomic replicon-replicating cells (quantification of replicon RNA copy number); format: cell-based, hepatitis C virus of genotype 2a (JFH-1 strain); conditions: inhibitor for 3 days, relative to no inhibitor (100%)
Description: as §1, §2
As a control for comparison, the cells into which HCV subgenomic replicon RNA of the JFH-1 strain of genotype 2a had been introduced (the JFH-1 subgenomic replicon-replicating cells) were used. The JFH-1 strain HCV subgenomic replicon RNA expression vector (comprising the 5′ untranslated region (5′ UTR), the sequence of 57 nucleotides at the 5′ terminus of the Core protein coding region, the neomycin resistance gene, the EMCV IRES sequence, the nucleotide sequences encoding the NS3 protein, the NS4A protein, the NS4B protein, the NS5A protein and the NS5B protein, and the 3′ untranslated region (3′ UTR) of the HCV JFH-1 strain in this order from the 5′ to 3′ direction) was constructed and HCV subgenomic replicon RNA was produced in accordance with the techniques described in Kato et al. (Gastroenterology, 2003, Vol. 125, pp. 1808-1817) and International Publication No. WO 04/104198. Introduction thereof into the Huh cells and quantification of the copy number were carried out in the manner as described above. […]

HCV genotype 3a = conditions: Reesink et al., Gastroenterology, 2010; cited from earlier work
[3] = system: HCV genotypes 1 to 6 except for genotype 3a; conditions: Reesink et al., Gastroenterology, 2010; cited from earlier work
HCV genotype 1b = conditions: Mori et al., 1992; cited from earlier work
HCV genotype 2a or 3a = conditions: compared with genotype 1b; Mori et al., 1992; cited from earlier work

For `COc1ccc2c(O[C@@H]3C[C@H]4C(=O)N[C@]5(C(=O)O)C[C@H]5/C=C\CCCCC[C@H](NC(=O)OC5CCCC5)C(=O)N4C3)cc(-c3csc(NC(C)C)n3)nc2c1` [BILN-2061], the “replication of the S310A subgenomic replicon RNAs (change ratio of HCV RNA levels)” value [1] was “did not inhibit” and the “replication of the JFH-1 subgenomic replicon RNA (change ratio of HCV RNA levels)” value [2] was “exert inhibitory activity”.
In the case of `O=C(O)c1ccc2c(c1)nc(-c1ccc(OCc3cc(N4CCCC4=O)ccc3-c3ccc(Cl)cc3)cc1F)n2C1CCCCC1` [JTK-109], the “replication of the S310A subgenomic replicon RNAs (change ratio of HCV RNA levels)” value [1] is reported as “markedly inhibited” and the “replication of the JFH-1 subgenomic replicon RNA (change ratio of HCV RNA levels)” value [2] is reported as “not to be inhibited”.
In the case of `C[C@@]1(F)[C@H](O)[C@@H](CO)O[C@H]1n1ccc(N)nc1=O` [PSI-6130], the “replication of the S310A subgenomic replicon RNAs (change ratio of HCV RNA levels)” value [1] is reported as “inhibited” and the “replication of the JFH-1 subgenomic replicon RNA (change ratio of HCV RNA levels)” value [2] is reported as “inhibited”.
In the case of `COc1ccc2c(O[C@@H]3C[C@H]4C(=O)N[C@]5(C(=O)NS(=O)(=O)C6CC6)C[C@H]5/C=C\CCCCN(C)C(=O)[C@@H]4C3)cc(-c3nc(C(C)C)cs3)nc2c1C` [TMC435], the “inhibitory effects on genotype 3a” value (HCV genotype 3a) is given as “weak inhibitory effects” and the “inhibitory effects on genotypes 1 to 6 except for genotype 3a” value [3] is given as “strong inhibitory effects”.
In the case of `CCC[C@H](NC(=O)[C@@H]1[C@H]2CCC[C@H]2CN1C(=O)[C@@H](NC(=O)[C@@H](NC(=O)c1cnccn1)C1CCCCC1)C(C)(C)C)C(=O)C(=O)NC1CC1` [VX-950, telaprevir], the “replication of the S310A subgenomic replicon RNAs (change ratio of HCV RNA levels)” value [1] is reported as “did not inhibit”.
For IFN-α, the “replication of the S310A subgenomic replicon RNAs (change ratio of HCV RNA levels)” value [1] was “markedly inhibited” and the “replication of the JFH-1 subgenomic replicon RNA (change ratio of HCV RNA levels)” value [2] was “markedly inhibited”.
In the case of interferon, the “therapeutic effect of interferon on genotype 1b” value (HCV genotype 1b) is listed as “low” and the “therapeutic effect of interferon on genotype 2a or 3a” value (HCV genotype 2a or 3a) is listed as “higher”.
